# ChEMBL document CHEMBL3621091, “Optimisation of a triazolopyridine based histone demethylase inhibitor yields a potent and selective KDM2A (FBXL11) inhibitor” (Medchemcomm, 2014)
# What was measured:
# Type in all cases: physicochemical
# Conditions in all cases: read-out: Peff
# [1] = Membrane permeability of the compound at pH 7.4 by PAMPA
# [2] = Membrane permeability of the compound at pH 6.2 by PAMPA
# [3] = Membrane permeability of the compound at pH 5 by PAMPA
Structure (SMILES),Papp [1],Papp [2],Papp [3]
O=C(O)c1ccnc(-c2cn([C@@H]3CCCN(C(=O)c4ccccc4)C3)nn2)c1,0.69 ×10⁻⁶ cm/s,0.41 ×10⁻⁶ cm/s,1.9 ×10⁻⁶ cm/s
COC(=O)c1ccnc(-c2cn([C@@H]3CCCN(C(=O)c4ccccc4)C3)nn2)c1,52 ×10⁻⁶ cm/s,45 ×10⁻⁶ cm/s,56 ×10⁻⁶ cm/s
